≈ marks a conversion by molar mass, not a printed value. Read-outs that look alike come from different tables or passages of the source.
What was measured:
[1] = tested on: HSV- I; assay: HSV antiviral (ELISA) assay; type: cell-based; conditions: read-out: IC50 (ug/ml) HSV
Method in brief: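 IC50 from fluorescence versus untreated control in a cell ELISA: anti-glycoprotein D antibody, β-galactosidase-conjugated secondary, 4-methyl umbelliferone read at 365/450 nm. Vero cells (2% FBS DMEM) received compound 30 min pre-infection with HSV-1 at MOI 0.006, fixed ~24 h post-infection.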

[2] = tested on: VZV strain Ellen; assay: VZV antiviral (ELISA) assay; type: cell-based
Method in brief: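 HFF cells infected with VZV Ellen at multiplicity below 0.1 overnight, then mixed infected/uninfected cells seeded with compound in DMEM/2% FBS and incubated three days at 37°C, 5% CO2.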

[3] = tested on: HCMV recombinant mutant virus whose genome contains the prokaryotic beta-glucuronidase gene; assay: microbe, parasite or virus in culture; type: cell-based, human cytomegalovirus; conditions: Human betaherpesvirus 5, Fibroblast
Method in brief: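 Antiviral IC50 estimated from reduced reporter activity across compound amounts: lysates prepared 96 h after infection were tested with p-nitrophenyl- or methylumbelliferyl-glucuronide. Cells were human foreskin fibroblasts, infected alongside inhibitor with HCMV (e.g. RV145) expressing viral promoter-driven beta-glucuronidase.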

[4] = Human alphaherpesvirus 3, HFF, read-out: IC50 (ug/ml) VZV, VZV strain Ellen, HFF cells, ELISA
[5] = read-out: IC50 ug/ml HCMV, HCMV, human foreskin fibroblasts
[6] = Human alphaherpesvirus 3, VZV strain Ellen, HFF cells, ELISA, read-out: IC50 (ug/ml) VZV

Compound	IC50 ([1]; Vero) [µg/mL]	IC50 [2, 4] [µg/mL]	IC50 [3, 5] [µg/mL]	IC50 ([1]; HSV- I, Vero cells, ELISA) [µg/mL]	IC50 [2, 6] [µg/mL]	IC50 ([3]; read-out: IC50 ug/ml HCMV) [µg/mL]	inhibition at 10 µg/mL ([2]; Human alphaherpesvirus 3, HFF, read-out: % inhibition 10 ug/ml VZV) [%]	IC50 ([2]; Human alphaherpesvirus 3, HFF, read-out: IC50 (ug/ml) VZV) [µg/mL]
Cc1ccccc1C(C)NC(=S)Nc1ccc(NC(=O)c2ccccc2F)cc1 (stereo not shown) [Example 775, 2-Fluoro-N-{4-[3-(1-o-tolyl-ethyl)-thioureido]-phenyl}-benzamide]	> 10	> 7.5	1 (≈ 2.45 µM)	–	–	–	–	–
Cc1cccc(C(C)NC(=S)Nc2ccc(NC(=O)c3ccccc3F)cc2)c1 (stereo not shown) [Example 776, 2-Fluoro-N-{4-[3-(1-m-tolyl-ethyl)-thioureido]-phenyl}-benzamide]	> 10	> 7.5	0.9 (≈ 2.21 µM)	–	–	–	–	–
COc1ccc(C(C)NC(=S)Nc2ccc(NC(=O)c3ccccc3F)cc2)cc1 (stereo not shown) [Example 777, 2-Fluoro-N-(4-{3-[1-(4-methoxy-phenyl)-ethyl]-thioureido}-phenyl)-benzamide]	> 10	> 7.5	1.7 (≈ 4.01 µM)	–	–	–	–	–
CC(NC(=S)Nc1ccc(NC(=O)c2ccccc2F)cc1)c1ccccc1F (stereo not shown) [Example 778, 2-Fluoro-N-(4-{3-[1-(2-fluoro-phenyl)-ethyl]-thioureido}-phenyl)-benzamide]	–	–	–	> 10	3 (≈ 7.29 µM)	0.8 (≈ 1.94 µM)	–	–
CC(NC(=S)Nc1ccc(NC(=O)c2ccccc2F)cc1)c1cccc(Cl)c1 (stereo not shown) [Example 779, N-(4-{3-[1-(3-Chloro-phenyl)-ethyl]-thioureido}-phenyl)-2-fluoro-benzamide]	> 10	> 7.5	1.2 (≈ 2.8 µM)	–	–	–	–	–
CC(NC(=S)Nc1ccc(NC(=O)c2ccccc2F)cc1)c1cccc(Br)c1 (stereo not shown) [Example 780, N-(4-{3-[1-(3-Bromo-phenyl)-ethyl]-thioureido}-phenyl)-2-fluoro-benzamide]	> 10	1.2 (≈ 2.54 µM)	1 (≈ 2.12 µM)	–	–	–	–	–
CC(NC(=S)Nc1ccc(NC(=O)c2ccccc2F)cc1)c1ccc(Cl)cc1 (stereo not shown) [Example 781, N-(4-{3-[1-(4-Chloro-phenyl)-ethyl]-thioureido}-phenyl)-2-fluoro-benzamide]	> 10	0.6 (≈ 1.4 µM)	1.8 (≈ 4.21 µM)	–	–	–	–	–
Cc1ccc(C(C)NC(=S)Nc2ccc(NC(=O)c3ccccc3F)cc2)cc1 (stereo not shown) [Example 782, 2-Fluoro-N-{4-[3-(1-p-tolyl-ethyl)-thioureido]-phenyl}-benzamide]	> 10	3 (≈ 7.36 µM)	0.9 (≈ 2.21 µM)	–	–	–	–	–
CC(NC(=S)Nc1ccc(NC(=O)c2ccccc2F)cc1)c1ccccc1Br (stereo not shown) [Example 783, N-(4-{3-[1-(2-Bromo-phenyl)-ethyl]-thioureido}-phenyl)-2-fluoro-benzamide]	> 10	0.3 (≈ 0.635 µM)	1.1 (≈ 2.33 µM)	–	–	–	–	–
CC(NC(=S)Nc1ccc(NC(=O)c2ccccc2F)cc1)c1ccccc1Cl (stereo not shown) [Example 784, N-(4-{3-[1-(2-Chloro-phenyl)-ethyl]-thioureido}-phenyl)-2-fluoro-benzamide]	> 10	0.7 (≈ 1.64 µM)	1.1 (≈ 2.57 µM)	–	–	–	–	–
CC(NC(=S)Nc1ccc(NC(=O)c2ccccc2F)cc1)c1ccccc1C(F)(F)F (stereo not shown) [Example 785, 2-Fluoro-N-(4-{3-[1-(2-trifluoromethyl-phenyl)-ethyl]-thioureido}-phenyl)-benzamide]	–	–	–	> 10	> 7.5	> 2.2	–	–
CC(NC(=S)Nc1ccc(NC(=O)c2ccccc2F)cc1)c1cccc(C(F)(F)F)c1 (stereo not shown) [Example 786, 2-Fluoro-N-(4-{3-[1-(3-trifluoromethyl-phenyl)-ethyl]-thioureido}-phenyl)-benzamide]	–	–	–	> 10	> 7.5	1.5 (≈ 3.25 µM)	–	–
CC(NC(=S)Nc1ccc(NC(=O)c2ccccc2F)cc1)c1ccc(C(F)(F)F)cc1 (stereo not shown) [Example 787, 2-Fluoro-N-(4-{3-[1-(4-trifluoromethyl-phenyl)-ethyl]-thioureido}-phenyl)-benzamide]	–	–	–	> 10	> 7.5	1.2 (≈ 2.6 µM)	–	–
COc1ccccc1C(C)NC(=S)Nc1ccc(NC(=O)c2ccccc2F)cc1 (stereo not shown) [Example 788, 2-Fluoro-N-(4-{3-[1-(2-methoxy-phenyl)-ethyl]-thioureido}-phenyl)-benzamide]	> 10	> 7.5	1.8 (≈ 4.25 µM)	–	–	–	–	–
COc1cccc(C(C)NC(=S)Nc2ccc(NC(=O)c3ccccc3F)cc2)c1 (stereo not shown) [Example 789, 2-Fluoro-N-(4-{3-[1-(3-methoxy-phenyl)-ethyl]-thioureido}-phenyl)-benzamide]	> 10	1.5 (≈ 3.54 µM)	> 2.2	–	–	–	–	–
CC(C)C(NC(=S)Nc1ccc(NC(=O)c2ccccc2F)cc1)c1ccc(F)cc1 (stereo not shown) [Example 790, 2-Fluoro-N-(4-{3-[1-(4-fluoro-phenyl)-2-methyl-propyl]-thioureido}-phenyl)-benzamide]	> 10	2.5 (≈ 5.69 µM)	1.5 (≈ 3.41 µM)	–	–	–	–	–

Compound	IC50 ([1]; Vero) [µg/mL]	IC50 [2, 4] [µg/mL]	IC50 [3, 5] [µg/mL]	IC50 ([1]; HSV- I, Vero cells, ELISA) [µg/mL]	IC50 [2, 6] [µg/mL]	IC50 ([3]; read-out: IC50 ug/ml HCMV) [µg/mL]	inhibition at 10 µg/mL ([2]; Human alphaherpesvirus 3, HFF, read-out: % inhibition 10 ug/ml VZV) [%]	IC50 ([2]; Human alphaherpesvirus 3, HFF, read-out: IC50 (ug/ml) VZV) [µg/mL]
CC(NC(=S)Nc1ccc(NC(=O)c2ccccc2F)cc1)c1cccc(C#N)c1 (stereo not shown) [Example 791, N-(4-{3-[1-(3-Cyano-phenyl)-ethyl]-thioureido}-phenyl)-2-fluoro-benzamide]	–	–	–	> 10	7 (≈ 16.7 µM)	7.3 (≈ 17.4 µM)	–	–
CC(NC(=S)Nc1ccc(NC(=O)c2ccccc2F)cc1)c1ccc(C#N)cc1 (stereo not shown) [Example 792, N-(4-{3-[1-(4-Cyano-phenyl)-ethyl]-thioureido}-phenyl)-2-fluoro-benzamide]	–	–	–	> 10	> 7.5	5 (≈ 11.9 µM)	–	–
CC(NC(=S)Nc1ccc(NC(=O)c2ccccc2F)cc1)c1ccc(N(C)C)cc1 (stereo not shown) [Example 793, N-(4-{3-[1-(4-Dimethylamino-phenyl)-ethyl]-thioureido}-phenyl)-2-fluoro-benzamide]	9 (≈ 20.6 µM)	3.1 (≈ 7.1 µM)	3.2 (≈ 7.33 µM)	–	–	–	–	–
CC(NC(=S)Nc1ccc(NC(=O)c2ccccc2F)cc1)c1cccc(N(C)C)c1 (stereo not shown) [Example 794, N-(4-{3-[1-(3-Dimethylamino-phenyl)-ethyl]-thioureido}-phenyl)-2-fluoro-benzamide]	7 (≈ 16 µM)	0.4 (≈ 0.916 µM)	6.2 (≈ 14.2 µM)	–	–	–	–	–
CC(NC(=S)Nc1ccc(NC(=O)c2ccccc2Br)cc1)c1ccc(F)cc1 (stereo not shown) [Example 795, 2-Bromo-N-(4-{3-[1-(4-fluoro-phenyl)-ethyl]-thioureido}-pbenyl)-benzamide]	8.6 (≈ 18.2 µM)	> 7.5	4.1 (≈ 8.68 µM)	–	–	–	–	–
O=C(Nc1ccc(NC(=S)NC(CO)c2ccccc2)cc1)c1ccccc1F (stereo not shown) [Example 797, 2-Fluoro-N-{4-[3-(2-hydroxy-1-phenyl-ethyl)-thioureido]-phenyl}-benzamide]	–	–	–	> 10	1.7 (≈ 4.15 µM)	> 10	–	–
CC(NC(=S)Nc1ccc(NC(=O)c2ccccc2F)cc1)c1ccc2ccccc2c1 (stereo not shown) [Example 799, 2-Fluoro-N-{4-[3-(1-naphthalen-2-yl-ethyl)-thioureido]-phenyl}-benzamide]	> 10	> 7.5	1.7 (≈ 3.83 µM)	–	–	–	–	–
CC(NC(=S)Nc1ccc(NC(=O)c2cccc(F)c2)cc1)c1ccc(F)cc1 (stereo not shown) [Example 800, 3-Fluoro-N-(4-{3-[1-(4-fluoro-phenyl)-ethyl]-thioureido}-phenyl)-benzamide]	–	–	–	> 10	> 7.5	> 10	–	–
CC(NC(=S)Nc1ccc(NC(=O)c2ccc(F)cc2)cc1)c1ccc(F)cc1 (stereo not shown) [Example 801, 4-Fluoro-N-(4-{3-[1-(4-fluoro-phenyl)-ethyl]-thioureido}-phenyl)-benzamide]	–	–	–	> 10	> 7.5	> 10	–	–
CCOc1ccc(NC(=S)Nc2ccc(NC(=O)c3ccccc3F)cc2)cc1Cl [Example 806, N-{4-[3-(3-Chloro-4-ethoxy-phenyl)-thioureido]-phenyl}-2-fluoro-benzamide]	> 10	> 7.5	> 10	–	–	–	–	–
CCCOc1ccc(NC(=S)Nc2ccc(NC(=O)c3ccccc3F)cc2)cc1Cl [Example 807, N-{4-[3-(3-Chloro-4-propoxy-phenyl)-thioureido]-phenyl}-2-fluoro-benzamide]	> 10	0.9 (≈ 1.97 µM)	10 (≈ 21.8 µM)	–	–	–	–	–
CC(C)Oc1ccc(NC(=S)Nc2ccc(NC(=O)c3ccccc3F)cc2)cc1Cl [Example 808, N-{4-[3-(3-Chloro-4-isopropoxy-phenyl)-thioureido]-phenyl}-2-fluoro-benzamide]	> 10	> 7.5	> 10	–	–	–	–	–
CCCCOc1ccc(NC(=S)Nc2ccc(NC(=O)c3ccccc3F)cc2)cc1Cl [Example 809, N-{4-[3-(4-Butoxy-3-chloro-phenyl)-thioureido]-phenyl}-2-fluoro-benzamide]	> 10	> 7.5	> 10	–	–	–	–	–
COc1ccc(NC(=S)Nc2ccc(NC(=O)c3ccccc3F)cc2)cc1I [Example 810, 2-Fluoro-N-{4-[3-(3-iodo-4-methoxy-phenyl)-thioureido]-phenyl}-benzamide]	–	–	–	1.1 (≈ 2.11 µM)	> 7.5	2.7 (≈ 5.18 µM)	–	–
COc1ccc(NC(=S)Nc2ccc(NC(=O)c3ccccc3F)cc2)cc1Br [Example 811, N-{4-[3-(3-Bromo-4-methoxy-phenyl)-thioureido]-phenyl}-2-fluoro-benzamide]	0.8 (≈ 1.69 µM)	> 7.5	3.1 (≈ 6.54 µM)	–	–	–	–	–
COc1ccc(NC(=S)Nc2ccc(NC(=O)c3ccccc3)cc2)cc1Cl [Example 817, N-{4-[3-(3-Chloro-4-methoxy-phenyl)-thioureido]-phenyl}-benzamide]	–	–	2 (≈ 4.86 µM)	1 (≈ 2.43 µM)	–	–	66	12 (≈ 29.1 µM)

Source: EP1137645B1, “ALPHA-METHYLBENZYL-CONTAINING THIOUREA INHIBITORS OF HERPES VIRUSES CONTAINING A […] GROUP” (Wyeth, priority 1998, dated 2000)
